One data set has as its target T1, TRB3 protein (Homo sapiens, UniProt Q96RU7).
T1 construct: purchased RD
T1 sequence (Q96RU7 1-358): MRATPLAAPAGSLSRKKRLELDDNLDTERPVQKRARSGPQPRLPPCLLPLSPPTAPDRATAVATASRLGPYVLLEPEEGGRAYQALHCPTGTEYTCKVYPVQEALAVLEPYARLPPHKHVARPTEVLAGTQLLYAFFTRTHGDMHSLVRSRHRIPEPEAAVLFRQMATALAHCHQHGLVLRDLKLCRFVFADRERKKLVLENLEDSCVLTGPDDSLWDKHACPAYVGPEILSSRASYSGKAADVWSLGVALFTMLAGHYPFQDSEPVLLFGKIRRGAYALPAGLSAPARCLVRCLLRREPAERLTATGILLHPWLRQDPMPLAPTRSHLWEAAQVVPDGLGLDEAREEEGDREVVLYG
Nature of the data set: Surface plasmon resonance (Biacore T200) binding of polypeptides to TRB3 protein. To be noted: SPR, FIG. 4-1, 4-2 and Table 1. How it is done: The surface plasmon resonance experiment was carried out in a surface plasmon resonator Biacore T200, and the procedure was carried out in accordance with the instructions of the plasma resonator Biacore T200. Specific steps are as follows:
1. Purified TRB3 protein (purchased from RD) was coupled to a CMS chip (purchased from GE) by amidogen, and the unbound protein was eluted at a flow rate of 10 μL/min. The surface of the chip was equilibrated for 2 hours. Among them, the specific steps of amidogen coupling, elution and equilibration refer to the relevant instruction of GE's CMS chip.
2. 250 μL of the S1-S11 and MR2 polypeptide fragments prepared in Example 1 with different concentrations (800, 400, 200, 50, 12.5, 6.25, and 3.125 nM) were automatically injected, and the entire surface plasmon resonance experiment was carried out at 25° C. The buffer used was HBS-EP buffer [0.01 M HEPES, 0.15 M NaCl, 3 mM EDTA and 0.005% (w/w) surfactant TWEEN20]. Biacore T200's built-in analysis software was used to simulate the binding curves of different concentrations of peptides to TRB3.

Data set [1] can be described thus: α-helix ratio of polypeptides by circular dichroism. It is filed as physicochemical. To be noted: PBS solution, 1 mg/mL. How it is done:
The α-helix ratio of the polypeptide was measured by a circular dichromatograph (purchased from Jasco, Japan). The polypeptides MR2, S1, S2, S3, S4, S5, S6, S7, S8, S9, S10 and S11 prepared in Example 1 were dissolved in PBS solution, and the working concentration of the circular dichromatograph was adjusted to 1 mg/mL. […] Among them, the α-helix ratio refers to the percentage of the number of peptide segments of the polypeptide that maintains the alpha helix of the secondary structure in the peptide segments of the total polypeptide.

The subject of data set [2] is mice with bleomycin-induced pulmonary fibrosis. The data set is described as follows: Survival rate of mice with bleomycin-induced pulmonary fibrosis. The settings on record: Table 3 groups: 2 mg/kg i.p., 10th to 28th day after modeling, twice a week. It is filed as in vivo, C57BL/6 mice. Here is the method:
(§1) Male C57BL/6 mice were fasted overnight, then anesthetized with 45 mg/kg sodium pentobarbital by injection intraperitoneally (i.p.), and intratracheally injected with bleomycin at a dose of 3 U/kg. The specific operation steps are as follows: cut the neck skin of the mouse with as little trauma as possible, expose the trachea with the assistance of elbow ophthalmic forceps, puncture the trachea and inject about 50 μL of bleomycin into the trachea with a microsyringe, rotate the mouse quickly and stand it upright for 5 minutes in order to make bleomycin evenly enter the left and right lobe, thereby constructing an animal model. The whole operation was performed at a surgical table at about […]. Mice in the sham operation group were intratracheally injected with an equal amount of physiological saline for injection.
The animal model with pulmonary fibrosis was prepared according to the method described in Example 2. The peptide therapy was started from the 10th day after modeling (the treatment groups are shown in Table 3), and the time was calculated from the 10th day after modeling to count the mortality rate. The death situation of each group of experimental animals was counted and calculated daily. […] The survival rate is the percentage of the number of mice that survived accounting for the number of mice in the whole group. Results are shown in FIG. 6-1, FIG. 6-2 and Table 4. […] In FIG. 6-1 and FIG. 6-2, “##” represents that P value is less than 0.01 when the survival rate of administration group was compared with that of the sham operation group; “*” represents that P value is less than 0.05 when the survival rate of administration group was compared with that of the bleomycin group; “**” represents that P value is less than 0.01 when the survival rate of administration group was compared with that of bleomycin group; and “i.p.” refers to intraperitoneal injection.
The animal model of pulmonary fibrosis was prepared according to the method described in Example 2. The polypeptide treatment was started from the 10th day after modeling (the treatment groups are shown in Table 9), and the time was calculated from the 10th day after modeling to count the mortality rate. The mortality rate of each group of experimental animals was recorded and calculated daily. If none of the animals in a group died, the survival rate of the group is 100%. If all the animals in a group died, the survival rate is 0%. […] In FIG. 12, “##” represents that P value is less than 0.01 when the survival rate of the administration groups were compared with that of the sham operation group; “*” represents that P value is less than 0.05 and “**” represents that P value is less than 0.01 when the survival rate of the administration groups were compared with bleomycin group.

Data set [3] has the same test system. Nature of the data set: Lung weight index in mice with pulmonary fibrosis. It is filed as in vivo, C57BL/6 mice. To be noted: Table 3 groups, 2 mg/kg i.p.; after 28 days; lung weight (mg) divided by body weight (g). How it is done:
as §1
Pulmonary fibrosis model was prepared according to the method described in Example 2, and administered in groups according to Table 3. After 28 days, the lungs of the mice were finely stripped and weighed, and a lung weight index was obtained from dividing the lung weight (mg) by the body weight (g) of the mice. […] In FIG. 7, “##” represents that P value is less than 0.01 when the lung weight index of administration group was compared with that of the sham operation group; “*” represents that P value is less than 0.05 when the lung weight index of administration group was compared with that of the bleomycin group; “**” represents that P value is less than 0.01 when the lung weight index of administration group was compared with that of bleomycin group.
Pulmonary fibrosis models were made according to the method described in Example 2 and administered in groups according to Table 9. After 28 days, the lungs of the mice were finely stripped and weighed, and the lung weight (mg) was divided by the body weight (g) of the mice to obtain a lung weight index. […] In FIG. 13, “##” represents that P value is less than 0.01 when the lung weight index of the administration groups were compared with that of the sham operation group; “*” represents that P value is less than 0.05 and “**” represents that P value is less than 0.01 when the lung weight index of the administration groups were compared with bleomycin group.

Molecules are shown by their SMILES. Bridge positions count the residues as written; N and C are the ends. Square brackets hold non-standard residues; d marks the D form. Peptide text beside a SMILES is read from it. S5 = C=CCCC[C@](C)(N)C(=O)O

Turning to `CC(C)C[C@H](NC(=O)[C@H](CCCCN)NC(=O)[C@H](CCCCN)NC(=O)[C@H](C)NC(=O)[C@H](CS)NC(=O)[C@]1(C)CCCC=CCCC[C@](C)(NC(=O)[C@H](CC(C)C)NC(=O)[C@@H](N)Cc2c[nH]cn2)C(=O)N[C@@H](C)C(=O)N[C@@H](CS)C(=O)N[C@@H](Cc2ccccc2)C(=O)N1)C(=O)N[C@@H](CCCCN)C(=O)N[C@@H](CCCCN)C(=O)N[C@@H](CCCNC(=N)N)C(=O)O` [S3, His-Leu-S5-Ala-Cys-Phe-S5-Cys-Ala-Lys-Lys-Leu-Lys-Lys-Arg] (H-HL[S5]ACF[S5]CAKKLKKR-OH; staple 3-7; N-terminus and C-terminus assumed), on TRB3 protein, the “interaction with the TRB3 protein (in words)” value (“interaction” below) is on record as “interacted with the TRB3 protein”. For the same compound, in data set [1], the “α-helicity (%)” value turned out to be 42.1% and the “α-helix ratio compared with polypeptide MR2 (in words)” value (“α-helix ratio” for short) is reported as “significantly higher than that of polypeptide MR2”. In addition, in data set [2], the “Survival rate (%) 7 days” value worked out at 100%, the “Survival rate (%) 14 days” value was determined as 93.33%, the “Survival rate (%) 21 days” value stood at 86.67% and the “Survival rate (%) 28 days” value is 86.67%. The compound also yielded a Lung weight index in data set [3] of 8.8.

`CSCC[C@H](NC(=O)[C@H](CC(C)C)NC(=O)[C@@H](N)Cc1c[nH]cn1)C(=O)N[C@@H](C)C(=O)N[C@@H](CS)C(=O)N[C@@]1(C)CCCC=CCCC[C@@](C)(C(=O)N[C@@H](CCCCN)C(=O)N[C@@H](CC(C)C)C(=O)N[C@@H](CCCCN)C(=O)N[C@@H](CCCCN)C(=O)N[C@@H](CCCNC(=N)N)C(=O)O)NC(=O)[C@H](C)NC(=O)[C@H](CS)NC(=O)[C@H]([C@@H](C)O)NC1=O` [S6, His-Leu-Met-Ala-Cys-S5-Thr-Cys-Ala-S5-Lys-Leu-Lys-Lys-Arg] (H-HLMAC[S5]TCA[S5]KLKKR-OH; staple 6-10; N-terminus and C-terminus assumed): the “interaction” value on TRB3 protein is listed as “interacted with the TRB3 protein”. In data set [1], the “α-helicity (%)” value worked out at 36.4% and the “α-helix ratio” value was “significantly higher than that of polypeptide MR2”. Also, in data set [2], the “Survival rate (%) 7 days” value was 100%, the “Survival rate (%) 14 days” value came out at 86.67%, the “Survival rate (%) 21 days” value is on record as 80% and the “Survival rate (%) 28 days” value is recorded as 80%. In data set [3], this compound showed a Lung weight index of 9.725.

As for `CSCC[C@@H]1NC(=O)[C@H](CC(C)C)NC(=O)[C@@](C)(N)CCCC=CCCC[C@@](C)(C(=O)N[C@@H](Cc2ccccc2)C(=O)N[C@H](C(=O)N[C@@H](CS)C(=O)N[C@@H](C)C(=O)N[C@@H](CCCCN)C(=O)N[C@@H](CCCCN)C(=O)N[C@@H](CC(C)C)C(=O)N[C@@H](CCCCN)C(=O)N[C@@H](CCCCN)C(=O)N[C@@H](CCCNC(=N)N)C(=O)O)[C@@H](C)O)NC(=O)[C@H](C)NC1=O` [S1, S5-Leu-Met-Ala-S5-Phe-Thr-Cys-Ala-Lys-Lys-Leu-Lys-Lys-Arg] (H-[S5]LMA[S5]FTCAKKLKKR-OH; staple 1-5; N-terminus and C-terminus assumed), the “interaction” value on TRB3 protein was “interacted with the TRB3 protein”. In data set [1], the “α-helicity (%)” value is reported as 39.5% and the “α-helix ratio” value is reported as “significantly higher than that of polypeptide MR2”. In addition, in data set [2], the “Survival rate (%) 7 days” value came to 100%, the “Survival rate (%) 14 days” value came to 86.67%, the “Survival rate (%) 21 days” value was 80% and the “Survival rate (%) 28 days” value was determined as 80%. Besides, in data set [3], the Lung weight index was found to be 8.675.

As to `CSCC[C@H](NC(=O)[C@H](CC(C)C)NC(=O)[C@@H](N)Cc1c[nH]cn1)C(=O)N[C@@]1(C)CCCC=CCCC[C@@](C)(C(=O)N[C@@H](C)C(=O)N[C@@H](CCCCN)C(=O)N[C@@H](CCCCN)C(=O)N[C@@H](CC(C)C)C(=O)N[C@@H](CCCCN)C(=O)N[C@@H](CCCCN)C(=O)N[C@@H](CCCNC(=N)N)C(=O)O)NC(=O)[C@H]([C@@H](C)O)NC(=O)[C@H](Cc2ccccc2)NC(=O)[C@H](CS)NC1=O` [S4, His-Leu-Met-S5-Cys-Phe-Thr-S5-Ala-Lys-Lys-Leu-Lys-Lys-Arg] (H-HLM[S5]CFT[S5]AKKLKKR-OH; staple 4-8; N-terminus and C-terminus assumed), at TRB3 protein, the “interaction” value is “interacted with the TRB3 protein”. For the same compound, in data set [1], the “α-helicity (%)” value was found to be 33.6% and the “α-helix ratio” value was “significantly higher than that of polypeptide MR2”. Also, in data set [2], the “Survival rate (%) 7 days” value came out at 100%, the “Survival rate (%) 14 days” value came to 86.67%, the “Survival rate (%) 21 days” value amounted to 80% and the “Survival rate (%) 28 days” value came to 80%. In addition, in data set [3], the Lung weight index turned out to be 8.925.

With `CSCC[C@H](NC(=O)[C@H](CC(C)C)NC(=O)[C@@H](N)Cc1c[nH]cn1)C(=O)N[C@@H](C)C(=O)N[C@@H](CS)C(=O)N[C@@H](Cc1ccccc1)C(=O)N[C@H](C(=O)N[C@@]1(C)CCCC=CCCC[C@@](C)(C(=O)N[C@@H](CCCCN)C(=O)N[C@@H](CCCCN)C(=O)N[C@@H](CCCNC(=N)N)C(=O)O)NC(=O)[C@H](CCCCN)NC(=O)[C@H](CCCCN)NC(=O)[C@H](C)NC1=O)[C@@H](C)O` [S8, His-Leu-Met-Ala-Cys-Phe-Thr-S5-Ala-Lys-Lys-S5-Lys-Lys-Arg] (H-HLMACFT[S5]AKK[S5]KKR-OH; staple 8-12; N-terminus and C-terminus assumed), the “interaction” value at TRB3 protein is “interacted with the TRB3 protein”. In data set [1], the “α-helicity (%)” value is reported as 29.1% and the “α-helix ratio” value is reported as “significantly higher than that of polypeptide MR2”. In data set [2], the “Survival rate (%) 7 days” value was 100%, the “Survival rate (%) 14 days” value is 100%, the “Survival rate (%) 21 days” value is given as 93.33% and the “Survival rate (%) 28 days” value was 86.67%. Besides, the Lung weight index in data set [3] turned out to be 8.775.

For the origin of these results see patent publication US20210179680A1, “POLYPEPTIDE, DERIVATIVES THEREOF, AND APPLICATION THEREOF IN PREPARATION OF DRUGS HAVING RESISTANCE TO PULMONARY FIBROSIS” (priority 2016, published 2021).
